We go through two molecules from patent US20050060764A1, “Mouse model for bone metabolism” (priority 2003, published 2005).

Data set [1] can be described thus: Serum calcium concentration after PTH infusion in mice treated with RANK antisense oligonucleotide: dosing schedule study (Table 14). The data set is classed as in vivo, mouse. On the procedure:
In accordance with the present invention, various antisense oligonucleotide dosing schedules were tested for their ability to inhibit serum calcium concentration increase resulting from PTH infusion.
Female Swiss-Webster mice (5-8 wks old) were fed a low-calcium diet. The mice were dosed with the same total amount of ISIS 181071 (SEQ ID NO: 356) (450 mg/kg), however the frequency of the dosage was varied. The first group received daily injections for […]. The second group received daily injections of 30 mg/kg/day for 5 days; the remaining 300 mg/kg was divided into 12 injections over 24 days and were administered every other day. The third group received daily injections of 30 mg/kg/day for 5 days; the remaining 300 mg/kg was divided into 8 injections over 24 days and were administered every third day. The fourth group received daily injections of 30 mg/kg/day for 5 days; the remaining 300 mg/kg was divided into 6 injections over 24 days and were administered every fourth day. Each group contained eight mice. Treatment with oligonucleotides was followed with infusion of PTH by subcutaneously implanted mini-pumps at a dose of 1 ug/100 g/6 hr. A control group received saline or PTH alone (1 ug/100 g/6 hr). After 24 hours of PTH infusion (total PTH delivery of 4 ug/100 g), the mice were sacrificed and the serum calcium concentration was measured with the Sigma Diagnostics Calcium Kit (Sigma-Aldrich). The data are shown in Table 14 and are the average of eight mice per group.

Data set [2] can be described thus: Serum calcium concentration in mice treated with RANK antisense oligonucleotide, no PTH: dose response and delivery method (Table 11). It counts as in vivo, mouse. On the procedure: In accordance with the present invention, antisense inhibition of the RANKL receptor, RANK, was evaluated in the short-term model of bone resorption. Serum calcium concentration was measured in mice treated with RANK antisense oligonucleotides at different doses, delivered by subcutaneous mini-pumps or subcutaneous injection.
ISIS 181071 ([…], SEQ ID NO: 356) is an antisense oligonucleotide targeted to mouse RANK. […] All cytidine residues are 5-methylcytidines.
Female Swiss-Webster mice (5-8 wks old), fed a low-calcium diet were treated with ISIS 181071 (SEQ ID NO: 356) for 15 days. The dose of oligonucleotide was either 30 mg/kg, 20 mg/kg, 10 mg/kg, 3 mg/kg, or 0.1 mg/kg administered by daily subcutaneous injections for the first five days, followed by mini-pump infusion for the remaining 10 days, or the dose was 10 mg/kg or 30 mg/kg administered daily by subcutaneous injection for the entire 15 day period. No PTH was administered to the mice that received oligonucleotide. A group of control mice were treated with either saline, PTH alone (1 ug/100 g/6 hr) or calcitonin (400 ng) plus PTH (1 ug/100 g/6 hr). After […] (total PTH delivery of 3 ug/100 g), blood samples were taken from the tail of the mice and the serum calcium concentration was measured with the Sigma Diagnostics Calcium Kit (Sigma-Aldrich). […] Thus, increase in serum calcium concentration is due to the PTH treatment rather than the oligonucleotide treatment.

A short description of data set [3]: Serum calcium concentration after RANK antisense oligonucleotide treatment and PTH infusion: dose response and delivery method (Table 12). It counts as in vivo, mouse. On the procedure: In accordance with the present invention, ISIS 181071 was evaluated for its ability to inhibit RANK expression and PTH-induced serum calcium concentration increase following 18 days of oligonucleotide treatment.
Female Swiss-Webster mice (5-8 wks old), fed a low-calcium diet, were treated for 18 days with ISIS 181071 (SEQ ID NO: 356) at different doses and through different delivery methods. The dose of oligonucleotide was either 30 mg/kg, 20 mg/kg, 10 mg/kg, 3 mg/kg, or 0.1 mg/kg administered by daily subcutaneous injections for the first five days, followed by mini-pump infusion for the remaining 13 days, or the dose was 10 mg/kg or 30 mg/kg administered daily by subcutaneous injection for the entire 18 day period. After 18 days of treatment with oligonucleotides, the mice were infused with PTH by subcutaneously implanted mini-pumps at a dose of 1 ug/100 g/6 hr. A group of control mice received saline, calcitonin (400 ng) plus PTH (1 ug/100 g/6 hr) or PTH alone (1 ug/100 g/6 hr). After 24 hours of PTH infusion (total PTH delivery of 4ug/100 g), the mice were sacrificed and measurements were made of serum calcium with the Sigma Diagnostics Calcium Kit (Sigma-Aldrich) and RANK mRNA expression in proximal tibia (as described in other examples herein). The results are shown in Table 12 are normalized to PTH treatment alone and are the average of four mice per group.

Another data set has as its system RANKL mRNA. Put plainly: RANKL mRNA expression in primary mouse osteoblast cells after PTH treatment: time course (Table 7). It counts as cell-based. To be noted: 10 nM PTH; for RANKL mRNA % control: primary osteoblast cells. On the procedure:
Primary mouse osteoblasts were prepared from calvaria of neonatal mice purchased from Charles River Laboratories. […] Cells were not passaged. Cells were seeded onto 6-well plates (Falcon-Primaria #353846) at a density of 50,000 cells/well for use in antisense oligonucleotide transfection.
In a further embodiment of this invention, the effect of PTH treatment on the expression of RANKL was determined in primary osteoblast cells isolated from mice skull caps. Primary osteoblastic cells were treated for 24 hours with either saline or the transfection reagent FuGENE 6 (Roche Applied Science, Indianapolis, Ind.). […] The RNA was then harvested and the expression levels of RANKL mRNA were measured by the methods described herein. The data are expressed as percent increase over untreated control cells.

Strand notation (5' to 3'): a small letter for the sugar, then the base; units joined by * are phosphorothioate-linked, units joined directly phosphodiester-linked; [ ] holds rarer units or linkages, { } end groups; capitals alone tell only the bases. e = 2'-O-(2-methoxyethyl) (MOE); [5mC] = 5-methylcytosine; d = 2'-deoxy (DNA)

“TCCTCGAGAGGTCTCCTTGC (antisense eT*e[5mC]*e[5mC]*eT*e[5mC]*dG*dA*dG*dA*dG*dG*dT*d[5mC]*dT*d[5mC]*e[5mC]*eT*eT*eG*e[5mC]) [ISIS 181071, 2′-MOE gapmer antisense oligonucleotide targeted to mouse RANK]”: in data set [1] (mice, total 450 mg/kg, various dosing schedules, 24 hours PTH infusion), the “rise in serum calcium concentration in response to PTH infusion” value is reported as “can similarly prevent the rise in serum calcium concentration”. In addition, the Serum calcium concentration was found to be 18 mg/dL in data set [1] (total 450 mg/kg, 30 mg/kg/day 5 days then every fourth day (6 injections over 24 days), then 24 h PTH); 16 mg/dL in data set [1] (total 450 mg/kg, 30 mg/kg/day 5 days then every other day (12 injections over 24 days), then 24 h PTH); 17 mg/dL in data set [1] (total 450 mg/kg, 30 mg/kg/day 5 days then every third day (8 injections over 24 days), then 24 h PTH); 16 mg/dL in data set [1] (total 450 mg/kg, daily injections for 2 weeks, then 24 h PTH); 9 mg/dL in data set [2] (0.1 mg/kg, injection 5 days then mini-pump infusion 10 days, no PTH); 9 mg/dL in data set [2] (3 mg/kg, injection 5 days then mini-pump infusion 10 days, no PTH). Moreover, the Serum calcium concentration in data set [2] (10 mg/kg daily subcutaneous injection 15 days, no PTH) is recorded as 9 mg/dL; in data set [2] (10 mg/kg, injection 5 days then mini-pump infusion 10 days, no PTH), 9 mg/dL; in data set [2] (20 mg/kg, injection 5 days then mini-pump infusion 10 days, no PTH) it was 9 mg/dL; in data set [2] (30 mg/kg daily subcutaneous injection 15 days, no PTH), 8 mg/dL; in data set [2] (30 mg/kg, injection 5 days then mini-pump infusion 10 days, no PTH), 9 mg/dL. For the same molecule, the serum calcium in data set [3] (0.1 mg/kg, injection 5 days then infusion 13 days, then 24 h PTH) turned out to be 21 mg/dL; in data set [3] (3 mg/kg, injection 5 days then infusion 13 days, then 24 h PTH), 20 mg/dL; in data set [3] (10 mg/kg daily subcutaneous injection 18 days, then 24 h PTH), 18 mg/dL; in data set [3] (10 mg/kg, injection 5 days then infusion 13 days, then 24 h PTH), 18 mg/dL; in data set [3] (20 mg/kg, injection 5 days then infusion 13 days, then 24 h PTH), 18 mg/dL; in data set [3] (30 mg/kg daily subcutaneous injection 18 days, then 24 h PTH) it was 14 mg/dL. Also, the serum calcium in data set [3] (30 mg/kg, injection 5 days then infusion 13 days, then 24 h PTH) turned out to be 17 mg/dL.

B1: parathyroid hormone (peptide, UniProt P01270 32-115, looked up)
Parathyroid hormone: SVSEIQLMHNLGKHLNSMERVEWLRKKLQDVHNFVALGAPLAPRDAGSQRPRKKEDNVLVESHEKSLGEADKADVNVLTKAKSQ
notes: parathyroid hormone infused to induce bone resorption in the mouse model
Take B1: the Serum calcium concentration in data set [1] (control group, PTH alone 1 ug/100 g/6 hr, 24 h) worked out at 21 mg/dL; in data set [2] (control mice, no oligonucleotide, PTH 1 ug/100 g/6 hr, calcitonin 400 ng, after 16 hours), 9 mg/dL. Besides, in data set [3] (control mice, no oligonucleotide, PTH 1 ug/100 g/6 hr 24 h, calcitonin 400 ng), the serum calcium was 20 mg/dL. Moreover, the “RANKL mRNA % control” value in the data set with RANKL mRNA (0.5 hours, FuGENE 6 treatment) is given as 185 % control; in the data set on RANKL mRNA (0.5 hours, saline treatment), 168 % control; in the data set with RANKL mRNA (1 hour, FuGENE 6 treatment), 750 % control; in the data set with RANKL mRNA (1 hour, saline treatment), 700 % control; with RANKL mRNA (2 hours, FuGENE 6 treatment), 1275 % control; in the data set on RANKL mRNA (2 hours, saline treatment), 908 % control. Further, the “RANKL mRNA % control” value in the data set with RANKL mRNA (4 hours, FuGENE 6 treatment) is recorded as 467 % control; with RANKL mRNA (4 hours, saline treatment) it was 383 % control; in the data set on RANKL mRNA (6 hours, FuGENE 6 treatment) it was 340 % control; in the data set with RANKL mRNA (6 hours, saline treatment) it was 326 % control. In addition, in the data set on RANKL mRNA (primary mouse osteoblast cells, in the presence of saline or FuGENE 6), the “RANKL mRNA expression in response to PTH” value is given as “upregulated in response to PTH”.
